Reference: patent US11439709B2, “Phospholipid ether analogs as cancer-targeting drug vehicles” (Cellectar Biosciences, Inc., priority 2014, dated 2022)
Values belong to the compound of their own block, whether it stands above or below them.

Experiments:
Capan-2 (Pancreas) = test: cells; type: cell-based; conditions: cell viability
Description: (§1) The cell lines were then measured for cell viability and reported as IC50 for each treatment.

HCT116 (Colorectal) = test: cells; type: cell-based
Description: as §1

HT29 (Colorectal) = test: cells; type: cell-based
Description: as §1

MDA-MB-468 (Breast) = test: cells; type: cell-based; conditions: cell viability
Description: as §1

MiaPaCa-1 (Pancreas) = test: cells; type: cell-based; conditions: cell viability
Description: as §1

NCI-H1299 (Lung) = test: cells; type: cell-based; conditions: NCI-HI1299 (Lung), cell viability
Description: as §1

NCI-H460 (Lung) = test: cells; type: cell-based; conditions: cell viability
Description: as §1

PC-3 (Prostate) = test: cells; type: cell-based; conditions: cell viability
Description: as §1

[1] = system: MDA-MB-468, NCI-H1299, NCI-H460, Capan-2, MiaPaCa-1, HT29, HCT116 and PC-3 cancer cell lines; test: Cell viability of the cancer cell line panel (result in words); type: cell-based; conditions: eight cancer cell lines, serial concentrations
Description: as §1

MDA-MB-468 cells = test: Annexin V / PI flow cytometry, MDA-MB-468 cells
Description: (§2) Annexin V and PI ([…]) staining by flow cytometry was utilized to determine percentages of live, early apoptotic, late apoptotic, and necrotic cells. In short, cells were treated with cytotoxic agents and stained with an Annexin V/P1 labeling kit (Life Technologies). Cells were analyzed on an LSRII flow cytometer (BD Biosciences). As shown in Tables 3-9, cells were classified as: Live (Annexin V negative, PI negative), Early apoptotic (Annexin V positive, PI negative), Late apoptotic (Annexin V positive, PI positive), and Necrotic. (Annexin V negative, PI positive). […] Annexin V (attached to AlexaFluor 488) is shown on the x-axis, while PI is shown on the y-axis. The lower left quadrant indicates live cells, the upper left quadrant indicates necrotic cells, the upper right quadrant indicates late apoptotic cells and the lower right quadrant indicates early apoptotic cells. Debris was eliminated from this analysis.

COLO 829 cells = test: Annexin V / PI flow cytometry, COLO 829 cells; type: cell-based
Description: as §2

PANC-1 cells = test: Annexin V / PI flow cytometry, PANC-1 cells; type: cell-based; conditions: GEL for 48 hours
Description: as §2

22RV1 cells = test: Annexin V / PI flow cytometry, 22RV1 cells; type: cell-based; conditions: GEL for 48 hours
Description: as §2

[2] = 100 nM, PTX for 24 hours, Table 3 titled 72 Hours
[3] = 1 uM, PTX for 24 hours, Table 3 titled 72 Hours
[4] = 1 uM, GEL for 48 hours, Table 4 titled 72 Hours
[5] = 100 nM, GEL for 48 hours, Table 5
[6] = 1 uM, GEL for 48 hours, Table 5

SMILES: CC(=O)O[C@H]1C(=O)[C@@]2(C)[C@H]([C@H](OC(=O)c3ccccc3)[C@]3(O)C[C@H](OC(=O)[C@H](OC(=O)CCCC(=O)Nc4ccc(CCCCCCCCCCCCCCCCCCOP(=O)([O-])OCC[N+](C)(C)C)cc4)[C@@H](NC(=O)c4ccccc4)c4ccccc4)C(C)=C1C3(C)C)[C@]1(OC(C)=O)CO[C@@H]1C[C@@H]2O [CLR1601]
- IC50 (Capan-2 (Pancreas)): 56.7 nM
- IC50 (HCT116 (Colorectal); cell viability): 7.6 nM
- IC50 (HT29 (Colorectal); cell viability): 92.2 nM
- IC50 (MDA-MB-468 (Breast)): 3.77 nM
- IC50 (MiaPaCa-1 (Pancreas)): 37.3 nM
- IC50 (NCI-H1299 (Lung)): 60.3 nM
- IC50 (NCI-H460 (Lung)): 29.5 nM
- IC50 (PC-3 (Prostate)): 34.4 nM
- reduction of cancer cell line viability [1]: capable of reducing cell viability
- Early Apoptotic (MDA-MB-468 cells; 1 uM, 48 hrs (Table 8)): 1.49 % of total cells
- Late Apoptotic (MDA-MB-468 cells; 1 uM, 48 hrs (Table 8)): 6 % of total cells
- Live (cell viability) (MDA-MB-468 cells; 1 uM, 48 hrs (Table 8)): 79.4 % of total cells
- Necrotic (MDA-MB-468 cells; 1 uM, 48 hrs (Table 8)): 13.1 % of total cells
- Early Apoptotic (MDA-MB-468 cells; 1 uM, 72 hrs): 9.8 % of total cells
- Late Apoptotic (MDA-MB-468 cells; 1 uM, 72 hrs): 57.5 % of total cells
- Live (cell viability) (MDA-MB-468 cells; 1 uM, 72 hrs): 17 % of total cells
- Necrotic (MDA-MB-468 cells; 1 uM, 72 hrs): 15.8 % of total cells
- Early Apoptotic (MDA-MB-468 cells; 5 uM, 72 hrs): 2.71 % of total cells
- Late Apoptotic (MDA-MB-468 cells; 5 uM, 72 hrs): 57.9 % of total cells
- Live (cell viability) (MDA-MB-468 cells; 5 uM, 72 hrs): 17.8 % of total cells
- Necrotic (MDA-MB-468 cells; 5 uM, 72 hrs): 21.6 % of total cells

- IC50 (HCT116 (Colorectal); Homo sapiens, HCT-116, cell viability): 0.87 nM
- IC50 (HT29 (Colorectal); Homo sapiens, HT-29, cell viability): 1.07 nM
- IC50 (MDA-MB-468 (Breast); Homo sapiens): 1.9 nM
- IC50 (MiaPaCa-1 (Pancreas)): 1.32 nM
- IC50 (NCI-H1299 (Lung); Homo sapiens, NCI-H1299): 1.82 nM
- IC50 (NCI-H460 (Lung); Homo sapiens): 1.66 nM
- IC50 (PC-3 (Prostate)): 0.9 nM
SMILES: CC(=O)O[C@H]1C(=O)[C@@]2(C)[C@H]([C@H](OC(=O)c3ccccc3)[C@]3(O)C[C@H](OC(=O)[C@H](O)[C@@H](NC(=O)c4ccccc4)c4ccccc4)C(C)=C1C3(C)C)[C@]1(OC(C)=O)CO[C@@H]1C[C@@H]2O [Paclitaxel, paclitaxel]
- IC50 (Capan-2 (Pancreas); Homo sapiens): 7.91 nM
- Early Apoptotic (MDA-MB-468 cells; 100 nM, 48 hrs (Table 8)): 2.47 % of total cells
- Late Apoptotic (MDA-MB-468 cells; 100 nM, 48 hrs (Table 8)): 5.54 % of total cells
- Live (cell viability) (MDA-MB-468 cells; 100 nM, 48 hrs (Table 8)): 77.9 % of total cells
- Necrotic (MDA-MB-468 cells; 100 nM, 48 hrs (Table 8)): 14.1 % of total cells
- Early Apoptotic (MDA-MB-468 cells; [2]): 5.9 % of total cells
- Late Apoptotic (MDA-MB-468 cells; [2]): 31.4 % of total cells
- Live (cell viability) (MDA-MB-468 cells; [2]): 53.8 % of total cells
- Necrotic (MDA-MB-468 cells; [2]): 8.89 % of total cells
- Early Apoptotic (MDA-MB-468 cells; 1 uM, 48 hrs (Table 8)): 1.97 % of total cells
- Late Apoptotic (MDA-MB-468 cells; 1 uM, 48 hrs (Table 8)): 9.18 % of total cells
- Live (cell viability) (MDA-MB-468 cells; 1 uM, 48 hrs (Table 8)): 73.3 % of total cells
- Necrotic (MDA-MB-468 cells; 1 uM, 48 hrs (Table 8)): 15.6 % of total cells
- Early Apoptotic (MDA-MB-468 cells; [3]): 5.5 % of total cells
- Late Apoptotic (MDA-MB-468 cells; [3]): 34.8 % of total cells
- Live (cell viability) (MDA-MB-468 cells; [3]): 48.9 % of total cells
- Necrotic (MDA-MB-468 cells; [3]): 10.8 % of total cells

SMILES: CC(=O)O[C@H]1C(=O)[C@]2(C)[C@@H](OC(=O)NCCCC(=O)Nc3ccc(CCCCCCCCCCCCCCCCCCOP(=O)([O-])OCC[N+](C)(C)C)cc3)C[C@H]3OC[C@@]3(OC(C)=O)[C@H]2[C@H](OC(=O)c2ccccc2)[C@]2(O)C[C@H](OC(=O)[C@H](O)[C@@H](NC(=O)c3ccccc3)c3ccccc3)C(C)=C1C2(C)C [CLR1602]
- reduction of cancer cell line viability [1]: not capable of significantly reducing cancer cell line viability

SMILES: COC1=C2C[C@@H](C)C[C@H](OC)[C@H](O)[C@@H](C)/C=C(\C)[C@H](OC(N)=O)[C@@H](OC)/C=C\C=C(/C)C(=O)NC(=CC1=O)C2=O [GEL, geldanamycin]
- Early Apoptotic (MDA-MB-468 cells; [4]): 19.6 % of total cells
- Late Apoptotic (MDA-MB-468 cells; [4]): 37.9 % of total cells
- Live (cell viability) (MDA-MB-468 cells; [4]): 26.2 % of total cells
- Necrotic (MDA-MB-468 cells; [4]): 16.3 % of total cells
- Early Apoptotic (COLO 829 cells; 100 nM, 48 hrs (Table 9)): 12.2 % of total cells
- Late Apoptotic (COLO 829 cells; 100 nM, 48 hrs (Table 9)): 29 % of total cells
- Live (cell viability) (COLO 829 cells; 100 nM, 48 hrs (Table 9)): 36.1 % of total cells
- Necrotic (COLO 829 cells; 100 nM, 48 hrs (Table 9)): 22.7 % of total cells
- Early Apoptotic (COLO 829 cells; [5]): 21.9 % of total cells
- Late Apoptotic (COLO 829 cells; [5]): 40.8 % of total cells
- Live (cell viability) (COLO 829 cells; [5]): 32.4 % of total cells
- Necrotic (COLO 829 cells; [5]): 4.9 % of total cells
- Early Apoptotic (COLO 829 cells; 1 uM, 48 hrs (Table 9)): 14.4 % of total cells
- Late Apoptotic (COLO 829 cells; 1 uM, 48 hrs (Table 9)): 38.3 % of total cells
- Live (cell viability) (COLO 829 cells; 1 uM, 48 hrs (Table 9)): 24.6 % of total cells
- Necrotic (COLO 829 cells; 1 uM, 48 hrs (Table 9)): 22.7 % of total cells
- Early Apoptotic (COLO 829 cells; [6]): 21.4 % of total cells
- Late Apoptotic (COLO 829 cells; [6]): 53.7 % of total cells
- Live (cell viability) (COLO 829 cells; [6]): 18.6 % of total cells
- Necrotic (COLO 829 cells; [6]): 6.42 % of total cells
- Early Apoptotic (PANC-1 cells; 100 nM): 4.68 % of total cells
- Late Apoptotic (PANC-1 cells; 100 nM): 12.6 % of total cells
- Live (cell viability) (PANC-1 cells; 100 nM): 23.3 % of total cells
- Necrotic (PANC-1 cells; 100 nM): 59.4 % of total cells
- Early Apoptotic (PANC-1 cells; 1 uM): 1.93 % of total cells
- Late Apoptotic (PANC-1 cells; 1 uM): 12.8 % of total cells
- Live (cell viability) (PANC-1 cells; 1 uM): 18.9 % of total cells
- Necrotic (PANC-1 cells; 1 uM): 66.4 % of total cells
- Early Apoptotic (22RV1 cells; 100 nM): 5.09 % of total cells
- Late Apoptotic (22RV1 cells; 100 nM): 28.4 % of total cells
- Live (cell viability) (22RV1 cells; 100 nM): 19.4 % of total cells
- Necrotic (22RV1 cells; 100 nM): 47.1 % of total cells
- Early Apoptotic (22RV1 cells; 1 uM): 6.22 % of total cells
- Late Apoptotic (22RV1 cells; 1 uM): 19.1 % of total cells
- Live (cell viability) (22RV1 cells; 1 uM): 28.1 % of total cells
- Necrotic (22RV1 cells; 1 uM): 46.6 % of total cells

SMILES: CC(=O)O[C@H]1C(=O)[C@@]2(C)[C@H]([C@H](OC(=O)c3ccccc3)[C@]3(O)C[C@H](OC(=O)[C@H](OC(=O)OCCCCC(=O)Nc4ccc(CCCCCCCCCCCCCCCCCCOP(=O)([O-])OCC[N+](C)(C)C)cc4)[C@@H](NC(=O)c4ccccc4)c4ccccc4)C(C)=C1C3(C)C)[C@]1(OC(C)=O)CO[C@@H]1C[C@@H]2O [CLR1603]
- reduction of cancer cell line viability [1]: capable of reducing cell viability
- Early Apoptotic (MDA-MB-468 cells; 1 uM, 48 hrs (Table 8)): 1.4 % of total cells
- Late Apoptotic (MDA-MB-468 cells; 1 uM, 48 hrs (Table 8)): 4.78 % of total cells
- Live (cell viability) (MDA-MB-468 cells; 1 uM, 48 hrs (Table 8)): 81.4 % of total cells
- Necrotic (MDA-MB-468 cells; 1 uM, 48 hrs (Table 8)): 12.4 % of total cells
- Early Apoptotic (MDA-MB-468 cells; 1 uM, 72 hrs): 6.74 % of total cells
- Late Apoptotic (MDA-MB-468 cells; 1 uM, 72 hrs): 49.1 % of total cells
- Live (cell viability) (MDA-MB-468 cells; 1 uM, 72 hrs): 22.2 % of total cells
- Necrotic (MDA-MB-468 cells; 1 uM, 72 hrs): 22 % of total cells
- Early Apoptotic (MDA-MB-468 cells; 5 uM, 72 hrs): 2.65 % of total cells
- Late Apoptotic (MDA-MB-468 cells; 5 uM, 72 hrs): 55.2 % of total cells
- Live (cell viability) (MDA-MB-468 cells; 5 uM, 72 hrs): 19.7 % of total cells
- Necrotic (MDA-MB-468 cells; 5 uM, 72 hrs): 22.5 % of total cells
